Laboratory results taken from patent publication US6300359A, “(E)-3-[1-n-Butyl-5-[2-(2-carboxyphenyl)methoxy-4-chlorophenyl]-1H-pyrazol-4 -yl]-2-[(5-methoxy-2,3-dihydrobenzofuran-6-yl)methyl]-prop-2-enoic acid monoargininyl salt” (SmithKline Beecham Corporation, priority 2000, dated 2001).
Entries after “also recorded” stand apart in the source; their conditions may differ. Where a name gives a salt, the structure may show the parent alone. Read-outs that look alike come from different tables or passages of the source. Values belong to the molecule of their own block, whether it stands above or below them.

Experiments:
[1] = Bioavailability study in dogs (oral capsule formulations; intraduodenal non-aqueous solution); format: in vivo, male beagle dogs; conditions: for bioavailability: plasma
[2] = Enterohepatic extraction ratio and theoretical maximum oral bioavailability; format: in vivo; conditions: dogs
[3] = Aqueous solubility under acidic conditions; format: physicochemical; conditions: water, pH<5.34
Description: The aqueous solubility of the diacid of the compound of Formula (I) is very limited under acidic conditions. The solubility is less than 0.1 ug/mL at pH<5.34.

[4] = Hygroscopicity study (moisture uptake, dynamic vapor sorption analyzer); format: physicochemical; conditions: for % Moisture Uptake: percentage weight gain
Text: ^a Measured on a dynamic vapor sorption analyzer as percentage weight

[5] = Accelerated stability studies; format: physicochemical; conditions: stored at 50° C.

bioavailability ([1]; dog, po, 10 mg/kg, dogs, oral dosing of a simple capsule formulation, read-out: oral bioavailability): 3.9%
bioavailability ([1]; dog, po, dog, oral capsule with 0.5% Tween 80 & 2 MEq NMG (also some microcrystalline cellulose, lactose, starch), read-out: Mean % Oral Bioavailability ± SD): 6.3 ± 5.3%
bioavailability ([1]; dog, po, dog, oral capsule with 0.5% Tween 80 (also some microcrystalline cellulose, lactose, starch), read-out: Mean % Oral Bioavailability ± SD): 2.3 ± 3.7%
hepatic extraction ratio ([2]; dog, in vivo): 0.82
theoretical maximum value of oral bioavailability ([2]; from enterohepatic extraction ratio): 18%
solubility [3]: < 0.1 µg/mL
% Moisture Uptake ([4]; 0% relative humidity): 0%
% Moisture Uptake ([4]; 10% relative humidity): 0.077%
% Moisture Uptake ([4]; 20% relative humidity): 0.088%
% Moisture Uptake ([4]; 30% relative humidity): 0.126%
% Moisture Uptake ([4]; 40% relative humidity): 0.184%
% Moisture Uptake ([4]; 50% relative humidity): 0.245%
% Moisture Uptake ([4]; 60% relative humidity): 0.316%
% Moisture Uptake ([4]; 70% relative humidity): 0.395%
% Moisture Uptake ([4]; 80% relative humidity): 0.509%
% Moisture Uptake ([4]; 90% relative humidity): 0.518%
SMILES: CCCCn1ncc(/C=C(\Cc2cc3c(cc2OC)CCO3)C(=O)O)c1-c1ccc(Cl)cc1OCc1ccccc1C(=O)O [Diacid, (E)-3-[1-n-Butyl-5-[2-(2-carboxyphenyl)methoxy-4-chlorophenyl]-1H-pyrazol-4-yl]-2-[(5-methoxy-2,3-dihydrobenzofuran-6-yl)methyl]-prop-2-enoic acid]

bioavailability ([1]; dog, dog, non-aqueous solution (99% PEG 400, 1% DMSO) dosed intraduodenally, only 2 animals, read-out: Mean % Oral Bioavailability ± SD): 14.5%
bioavailability ([1]; dog, po, dog, oral capsule (with microcrystalline cellulose as diluent), read-out: Mean % Oral Bioavailability ± SD): 6.2%
% Moisture Uptake ([4]; 0% relative humidity): 0%
% Moisture Uptake ([4]; 10% relative humidity): 1.849%
% Moisture Uptake ([4]; 20% relative humidity): 2.838%
% Moisture Uptake ([4]; 30% relative humidity): 3.821%
% Moisture Uptake ([4]; 40% relative humidity): 5.013%
% Moisture Uptake ([4]; 50% relative humidity): 6.773%
% Moisture Uptake ([4]; 60% relative humidity): 10.188%
% Moisture Uptake ([4]; 70% relative humidity): 15.919%
% Moisture Uptake ([4]; 80% relative humidity): 22.472%
% Moisture Uptake ([4]; 90% relative humidity): 33.671%
SMILES: CCCCn1ncc(/C=C(\Cc2cc3c(cc2OC)CCO3)C(=O)O)c1-c1ccc(Cl)cc1OCc1ccccc1C(=O)O [Disodium Salt]

Mean % Oral Bioavailability ± SD ([1]; dog, oral capsule (with microcrystalline cellulose as diluent), 10 mg/kg): 13.8 ± 7.6%
% Moisture Uptake ([4]; 0% relative humidity): 0%
% Moisture Uptake ([4]; 10% relative humidity, listed as Monoarginine): 0.261%
% Moisture Uptake ([4]; 20% relative humidity, listed as Monoarginine): 0.382%
% Moisture Uptake ([4]; 30% relative humidity, listed as Monoarginine): 0.526%
% Moisture Uptake ([4]; 40% relative humidity, listed as Monoarginine): 0.689%
% Moisture Uptake ([4]; 50% relative humidity, listed as Monoarginine): 0.827%
% Moisture Uptake ([4]; 60% relative humidity, listed as Monoarginine): 0.982%
% Moisture Uptake ([4]; 70% relative humidity, listed as Monoarginine): 1.092%
% Moisture Uptake ([4]; 80% relative humidity, listed as Monoarginine): 1.434%
% Moisture Uptake ([4]; 90% relative humidity, listed as Monoarginine): 2.334%
moisture absorbed ([4]; relative humidity range of 0 to 90%): 2.3%
SMILES: CCCCn1ncc(/C=C(\Cc2cc3c(cc2OC)CCO3)C(=O)O)c1-c1ccc(Cl)cc1OCc1ccccc1C(=O)O [Monoargininyl Salt, (E)-3-[1-n-Butyl-5-[2-(2-carboxyphenyl)methoxy-4-chlorophenyl]1H-pyrazol-4-yl]-2-[(5-methoxy-2,3-dihydrobenzofuran-6-yl)methyl]-prop-2-enoic Acid, Monoargininyl Salt]
bioavailability compared with other forms (in words) ([1]; dogs, vs disodium salt or dissolution-enhancing formulations of the diacid): increased bioavailability as compared to the disodium salt or dissolution-enhancing formulations of the diacid
hygroscopicity (in words) ([4]; compared with diacid and amorphous disodium salt, listed as monoarginine salt): minimally hygroscopic; also recorded: slightly more hygroscopic than the diacid form; also recorded: considerably less hygroscopic than the amorphous disodium salt form
chemical stability [5]: chemically stable for at least three weeks
